This passage reports observed effect results from US20070123426A1, “Mixtures” (BASF Aktiengesellschaft, priority 2005, published 2007).

Each structure is given as a SMILES string.

What all share (assay): greenhouse post-emergence herbicidal test
Holding throughout (type): in vivo

The subject of one experiment is AMBEL (Ambrosia elatior). To be noted: AMBEL; a) 3.125 g/ha, MSO or COC 1.25%, scale 0-100. The source says: (§1) The culture vessels used were plastic flowerpots filled, as substrate, with sandy loam comprising about 3% of humus. The seeds of the test plants were sown separated according to species.
(§2) For the post-emergence treatment, the test plants were initially cultivated to a height of 3-17 cm according to their habit and only then treated with the active compounds, which had been suspended or emulsified in water. To this end, the test plants were either sown directly and cultivated in the same vessels, or they were initially cultivated separately as seedlings and transplanted into the test vessels a few days prior to the treatment. According to the species, the plants were kept at temperatures of from 15° C. to 25° C. or from 20 to 35° C. The trial period extended over 3 weeks. During this time the plants were tended and their response to the individual treatments was evaluated.
(§3) The application in the greenhouse was carried out at a spray liquor application rate of 200 l/ha.

The test system of experiment [1] is ECHCG (Echinochloa crus-galli). To be noted: MSO or COC 1.25%, scale 0-100.
Excerpt: as §1, §2, §3

Another experiment concerns HELAN (Helianthus annua). To be noted: HELAN; a) 6.25 g/ha, MSO or COC 1.25%, scale 0-100.
Excerpt: as §1, §2, §3

Experiment [2] concerns PANDI (Panicum dichotomiflorum). As to conditions: PANDI; a) 25 g/ha, MSO or COC 1.25%, scale 0-100.
Excerpt: as §1, §2, §3

The test system of experiment [3] is PANMI (Panicum milliaceum). To be noted: PANMI; a) 12.5 g/ha, MSO or COC 1.25%, scale 0-100.
Excerpt: as §1, §2, §3

A further experiment deals with SETVI (Setaria viridis). To be noted: SETVI; a) 12.5 g/ha, MSO or COC 1.25%, scale 0-100.
Excerpt: as §1, §2, §3

A further experiment concerns SOLNI (Solanum nigrum). To be noted: SOLNI; a) 3.125 g/ha, MSO or COC 1.25%, scale 0-100.
Excerpt: as §1, §2, §3

For the next experiment, the system named is SORBI (Sorghum bicolor). As to conditions: SORBI; a) 25 g/ha, MSO or COC 1.25%, scale 0-100.
Excerpt: as §1, §2, §3

Experiment [4] concerns XANST (Xanthium strumarium). As to conditions: XANST; a) 12.5 g/ha, MSO or COC 1.25%, scale 0-100.
Excerpt: as §1, §2, §3

Regarding `Cc1c(C(=O)c2cnn(C)c2O)ccc(S(C)(=O)=O)c1C1=NOCC1` [a)], the observed effect is on record as 60 in the experiment with AMBEL (Ambrosia elatior); 0 in experiment [1] (ECHCG; a) 12.5 g/ha); 0 in [1] (ECHCG; a) 25 g/ha); 30 in the experiment with HELAN (Helianthus annua); 0 in experiment [2]; 75 in experiment [3]. Besides, the observed effect with SETVI (Setaria viridis) is given as 60; with SOLNI (Solanum nigrum) it was 30; with SORBI (Sorghum bicolor), 10; in experiment [4], 65.
